Measurements from patent US20090176835A1, “PHARMACEUTICAL COMPOSITION FOR SUPPRESSION OF THE EXPRESSION OF ATP CITRATE LYASE AND USE THEREOF” (Ajinomoto Co., Inc., priority 2002, published 2009).

Tests used:
[1] = cited from earlier work
[2] = after 30 days' administration; patients without liver diseases (Drugs R&D 2(2):123 (1999)); cited from earlier work
[3] = Blood GOT and GPT as indices of liver function in patients with type 2 diabetes, 12 weeks oral nateglinide; assay type: in vivo, human; conditions: for GOT, change (0 to 12 weeks) / GPT, change (0 to 12 weeks): decrease, p<0.05
Procedure: Nateglinide was orally administered to patients with type 2 diabetes three times a day in a dose of usually […] before meals for 12 weeks. Blood GOT and GPT concentrations were determined as indices of the liver function in 0 week and 12th week. In analysis 1, the results obtained by the oral administration of nateglinide to 53 patients with type 2 diabetes each having fatty liver for 12 weeks were analyzed. In analysis 2, the results obtained by the oral administration of nateglinide to 16 cases of type-2 diabetes having liver disorders (GOT, GPT≧51 IU/L) were analyzed.

[4] = test system: rat ACL gene (GenBank ID: J05210); test: Liver ACL expression analyzed with DNA chips, Experiment 1 (normal Wistar rats); assay type: in vivo
Procedure: The effect of nateglinide on the expression of liver ACL was analyzed with DNA chips. In Experiment 1, methylcellulose or 50 mg/kg of nateglinide suspended in methylcellulose was orally administered to normal Wistar rats fasted overnight. One hour after the administration, the liver was taken from each rat and freezed. The total RNA was extracted with RNeasy kit (Qiagen Co. Ltd). Biotinylated cRNA probe was prepared by a standard method and then it was hybridized to rat genome U34 array (Affymetrix Co. Ltd). The amount of cRNA hybridized to rat ACL gene (GenBank ID: J05210) was analyzed with Microarray Suite 5.0 software (Affymetrix Co. Ltd).

[5] = Insulin level in GK rat portal vein after nateglinide; assay type: in vivo; conditions: after administration
[6] = test system: rat ACL gene (GenBank ID: J05210); test: Liver ACL expression analyzed with DNA chips, Experiment 2 (GK rats); assay type: in vivo
Procedure: In Experiment 1, methylcellulose or 50 mg/kg of nateglinide suspended in methylcellulose was orally administered to normal Wistar rats fasted overnight. One hour after the administration, the liver was taken from each rat and freezed. The total RNA was extracted with RNeasy kit (Qiagen Co. Ltd). Biotinylated cRNA probe was prepared by a standard method and then it was hybridized to rat genome U34 array (Affymetrix Co. Ltd). The amount of cRNA hybridized to rat ACL gene (GenBank ID: J05210) was analyzed with Microarray Suite 5.0 software (Affymetrix Co. Ltd). Also in Experiment 2, 1 g/kg of glucose, 50 mg/kg of nateglinide or both of glucose and nateglinide were orally administered to Wistar rats and GK rats fasted overnight. One hour after the administration, the liver was taken from each rat and the expression of ACL level was analyzed with DNA chips in the same manner as that in Experiment 1.

[7] = analysis 1: 53 type 2 diabetes patients with fatty liver
[8] = analysis 1: type 2 diabetes patients with fatty liver, 12 weeks
[9] = analysis 2: 16 cases of type-2 diabetes with liver disorders
[10] = analysis 2: type-2 diabetes with liver disorders, 12 weeks

**Q.** For `CC(C)[C@H]1CC[C@H](C(=O)N[C@H](Cc2ccccc2)C(=O)O)CC1` [nateglinide, (−)-N-(trans-4-isopropylcyclohexanecarbonyl)-D-phenylalanine], which “Effect of hepatic cirrhosis on pharmacokinetics” value ([1]; J. Clin. Pharmacol. 40:634 (2000), Drugs 60(3):607 (2000)) is on record?
**A.** The value was “no significant effect”.

**Q.** And the “Increase of total exposure” value ([1]; subjects with mild hepatic impairment (Am J Health-Syst Pharm 58, 285 (2001)))?
**A.** The value was 30%.

**Q.** And the “Alterations in liver function” value [2]?
**A.** Its value is “no significant alterations”.

**Q.** What about the “GOT value after administration” value ([3]; 5 cases with fatty liver and NASH-like liver troubles (GOT, GPT≧51 IU/L, GPT>GOT), reduced from 138.6±56.0) of the same compound?
**A.** The value was 83.6±41.5 IU/L.

**Q.** And the “GPT value after administration” value ([3]; 5 cases with fatty liver and NASH-like liver troubles (GOT, GPT≧51 IU/L, GPT>GOT), reduced from 242.6±112.8)?
**A.** The value was 57.8±59.2 IU/L.

**Q.** And the “GOT, 12th week” value ([3]; analysis 1: 53 type 2 diabetes patients with fatty liver, 12 weeks oral, 0 week 58.4 ± 34.4)?
**A.** Its value is 33.8 ± 22.9 IU/L.

**Q.** And the “GPT, 12th week” value ([3]; analysis 1: 53 type 2 diabetes patients with fatty liver, 12 weeks oral, 0 week 77.2 ± 55.9)?
**A.** The value was 44.0 ± 29.7 IU/L.

**Q.** And the “GOT, change (0 to 12 weeks)” value [3, 7]?
**A.** The value was 24.7 ± 12.4 IU/L.

**Q.** What about the “GPT, change (0 to 12 weeks)” value [3, 7] of the same compound?
**A.** The value was 33.2 ± 31.0 IU/L.

**Q.** And the “Level of GOT after administration compared with before” value [3, 8]?
**A.** The value was “statistically significant lowered”.

**Q.** And the “Level of GPT after administration compared with before” value [3, 8]?
**A.** The value was “statistically significant lowered”.

**Q.** And the “GOT, 12th week” value ([3]; analysis 2: 16 cases of type-2 diabetes with liver disorders (GOT, GPT≧51 IU/L), 0 week 133.3 ± 51.3)?
**A.** The value was 85.4 ± 40.9 IU/L.

**Q.** What about the “GPT, 12th week” value ([3]; analysis 2: 16 cases of type-2 diabetes with liver disorders (GOT, GPT≧51 IU/L), 0 week 217.3 ± 94.1) of the same compound?
**A.** The value was 80.2 ± 53.4 IU/L.

**Q.** What about the “GOT, change (0 to 12 weeks)” value [3, 9] of the same compound?
**A.** The value was 47.8 ± 37.9 IU/L.

**Q.** And the “GPT, change (0 to 12 weeks)” value [3, 9]?
**A.** The value was 137.0 ± 43.4 IU/L.

**Q.** What about the “GOT before vs after administration” value [3, 10] of the same compound?
**A.** The value was “statistically significant lowering”.

**Q.** What about the “GPT before vs after administration” value [3, 10] of the same compound?
**A.** Its value is “statistically significant lowering”.

**Q.** What about the “Expression level of liver ACL (cRNA hybridized to rat ACL gene), Analysis 1” value ([4]; Wistar rats fasted overnight, 50 mg/kg oral, no glucose, liver 1 h after, methylcellulose control 96.2) of the same compound?
**A.** Its value is 144.4.

**Q.** What about the “Expression level of liver ACL (cRNA hybridized to rat ACL gene), Analysis 2” value ([4]; Wistar rats fasted overnight, 50 mg/kg oral, no glucose, liver 1 h after, methylcellulose control 459.3) of the same compound?
**A.** The value was 543.6.

**Q.** What about the “Suppression of liver ACL mRNA level” value ([4]; normal Wistar rats) of the same compound?
**A.** Its value is “no significant suppression”.

**Q.** What about the “Insulin level in portal vein” value [5] of the same compound?
**A.** The value was “transient increase”.

**Q.** What about the “Expression level of liver ACL (cRNA hybridized to rat ACL gene), Analysis 1” value ([6]; Experiment 2 group 5, GK rats fasted overnight, 50 mg/kg oral with 1 g/kg glucose, liver 1 h after, GK controls 139.6) of the same compound?
**A.** The value was 66.4.

**Q.** What about the “Expression level of liver ACL (cRNA hybridized to rat ACL gene), Analysis 2” value ([6]; Experiment 2 group 5, GK rats fasted overnight, 50 mg/kg oral with 1 g/kg glucose, liver 1 h after, GK controls 452.5 / 416.7) of the same compound?
**A.** Its value is 189.9.

**Q.** And the “Elevated liver ACL expression level” value ([6]; GK rats, Experiment 2, groups 3, 4 vs 5)?
**A.** Its value is “significantly suppressed and returned to the normal level”.
